Here are results for 30 molecules from US12187721B2, “Protein tyrosine phosphatase inhibitors” (Array BioPharma Inc., priority 2018, dated 2025).

Read-outs that look alike come from different tables or passages of the source.

This assay has as its target T1, full-length SHP2 (His6-tagged SHP2(2-527)) (Homo sapiens, UniProt Q06124).
T1 construct: His6-tagged SHP2(2-527); His6; made in house; host or cells: E. coli
Nature of the assay: SHP2 Enzymatic Assay (fluorescence intensity kinetic assay, DiFMUP hydrolysis). Format: biochemical. As to the method:
A fluorescence intensity kinetic assay was configured for full-length SHP2 that monitors the amount of 6,8-difluoro-7-hydroxy-4-methylcoumarin (“DiFMU”) formed upon hydrolysis of 6,8-difluoro-4-methylumbelliferyl phosphate (“DiFMUP”) by SHP2. Assay mixtures consisted of 25 mM K^+HEPES, pH 7.4, 0.01% Triton X-100, 1 mM DTT, 50 mM KCl, 100 μg/mL bovine γ-globulin, 50 μM DiFMUP, 1 μM SHP2 activating peptide (LN(pY)IDLDLV(dPEG8)LST(pY)ASINFQK-amide), 1 nM full-length SHP2 (His6-tagged SHP2(2-527), recombinantly expressed in E. coli and purified in-house) and 2% dimethylsulfoxide (“DMSO”) (from compound). […] The assay was run in 384-well, polystyrene, low-volume, non-treated, black microtiter plates (Costar 4511) in a final volume of 20 μL. Low control wells lacked enzyme. The assays were initiated by the addition of a mixture of SHP2 and the activating peptide, and following a 15 second mix on an orbital shaker, were read in kinetic mode for 15 minutes (30 seconds/cycle) at ambient temperature on a PerkinElmer EnVision microplate reader (λEx=355 nm, λEm=460 nm). Initial velocities (slopes of the tangents at t=0) were estimated from exponential fits to the slightly nonlinear progress curves and then were converted to percent of control (“POC”) using the following equation:
[formula] • Where: Xmax Average Uninhibited Controls • Xmin Average Background A 4-parameter logistic model was the fit to the POC data for each compound. From that fit, the IC50 was estimated and is defined as the concentration of compound at which the curve crosses 50 POC.
The reported IC50 in Table 1 may be from a single assay or the mean of multiple assays.

T1 sequence (Q06124 2-527): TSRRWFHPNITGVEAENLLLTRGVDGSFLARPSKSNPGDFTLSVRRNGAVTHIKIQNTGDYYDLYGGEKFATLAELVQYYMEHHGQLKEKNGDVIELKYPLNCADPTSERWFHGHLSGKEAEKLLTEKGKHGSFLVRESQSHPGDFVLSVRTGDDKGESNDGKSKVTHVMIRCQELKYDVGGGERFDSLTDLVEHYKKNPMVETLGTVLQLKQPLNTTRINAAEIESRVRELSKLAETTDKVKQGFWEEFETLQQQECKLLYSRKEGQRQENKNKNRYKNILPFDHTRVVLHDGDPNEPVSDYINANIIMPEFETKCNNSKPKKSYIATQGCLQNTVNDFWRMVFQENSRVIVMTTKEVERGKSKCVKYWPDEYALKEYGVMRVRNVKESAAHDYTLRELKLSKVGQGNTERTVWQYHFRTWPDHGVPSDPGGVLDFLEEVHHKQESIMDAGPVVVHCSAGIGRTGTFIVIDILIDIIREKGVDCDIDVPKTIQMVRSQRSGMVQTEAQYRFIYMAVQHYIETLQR

On to `COCCCNc1nccc(Sc2ccc3nc(N4CCC(C)(N)CC4)cnc3n2)c1Cl` [Example 195, 4-((2-(4-amino-4-methylpiperidin-1-yl)pyrido[2,3-b]pyrazin-6-yl)thio)-3-chloro-N-(3-methoxypropyl)pyridin-2-amine], for which half-maximal inhibition (IC50) required 0.506 µM. Turning to `NCC1(CO)CCN(c2cnc3nc(Sc4ccnc(N)c4Cl)ccc3n2)CC1` [Example 86, (1-(6-((2-amino-3-chloropyridin-4-yl)thio)pyrido[2,3-b]pyrazin-2-yl)-4-(aminomethyl)piperidin-4-yl)methanol], the IC50 (in general, the concentration that inhibits the measured activity by half) came to 0.053 µM. The same measure, in the same setting: next, `C[C@@H]1OCC2(CCN(c3cnc4nc(Sc5c(C(F)(F)F)cnc6[nH]ccc56)ccc4n3)CC2)[C@@H]1N` [Example 193, (3S,4S)-3-methyl-8-(6-((5-(trifluoromethyl)-1H-pyrrolo[2,3-b]pyridin-4-yl)thio)pyrido[2,3-b]pyrazin-2-yl)-2-oxa-8-azaspiro[4.5]decan-4-amine]: 0.138 µM; `CNc1nccc(Sc2ccc3nc(N4CCCC(C)(N)CC4)cnc3n2)c1Cl` (stereo not drawn) [Example 146, 1-(6-((3-chloro-2-(methylamino)pyridin-4-yl)thio)pyrido[2,3-b]pyrazin-2-yl)-4-methylazepan-4-amine]: 0.089 µM; `COc1c(Sc2ccc3nc(N4CCC5(CC4)CO[C@@H](C)[C@H]5N)cnc3n2)ccnc1N` [Example 153, (3S,4S)-8-(6-((2-amino-3-methoxypyridin-4-yl)thio)pyrido[2,3-b]pyrazin-2-yl)-3-methyl-2-oxa-8-azaspiro [4.5] decan-4-amine]: 0.164 µM. Consider `N[C@@H]1c2cccnc2CC12CCN(c1cnc3nc(Sc4ccnc(N5CCC(O)CC5)c4Cl)ccc3n1)CC2` [Example 209, (S)-1-(4-((2-(5-amino-5,7-dihydrospiro[cyclopenta[b]pyridine-6,4′-piperidin]-1′-yl)pyrido[2,3-b]pyrazin-6-yl)thio)-3-chloropyridin-2-yl)piperidin-4-ol], for which it took 0.04 µM to reach half-maximal inhibition (IC50). Molecule `Nc1nccc(Sc2ccc3nc(N4CCC5(CC4)Cc4cc(Cl)ccc4[C@@H]5N)cnc3n2)c1Cl` [Example 170, (R)-1′-(6-((2-amino-3-chloropyridin-4-yl)thio)pyrido[2,3-b]pyrazin-2-yl)-5-chloro-1,3-dihydrospiro[indene-2,4′-piperidin]-1-amine] registered an IC50 of 0.062 µM. As for `C[C@@H]1OCC2(CCN(c3cnc4nc(Sc5ccnc6[nH]cnc56)ccc4n3)CC2)[C@@H]1N` [Example 131, (3S,4S)-8-(6-((3H-imidazo[4,5-b]pyridin-7-yl)thio)pyrido[2,3-b]pyrazin-2-yl)-3-methyl-2-oxa-8-azaspiro[4.5]decan-4-amine], the IC50 is 0.419 µM. Turning to `C[Si]1(CN)CCN(c2cnc3nc(Sc4ccnc(N)c4Cl)ccc3n2)CC1` [Example 109, 4-((2-(4-(Aminomethyl)-4-methyl-1,4-azasilinan-1-yl)pyrido[2,3-b]pyrazin-6-yl)thio)-3-chloropyridin-2-amine], the IC50 is 0.027 µM. `CC1(N)CCN(c2cnc3nc(Sc4ccnc5ncccc45)ccc3n2)CC1` [Example 197, 1-(6-((1,8-naphthyridin-4-yl)thio)pyrido[2,3-b]pyrazin-2-yl)-4-methylpiperidin-4-amine] had an IC50 of 1.51 µM. Turning to `COc1ccc2c(c1)[C@@H](N)C1(CCN(c3cnc4nc(Sc5ccnc(N)c5Cl)ccc4n3)CC1)C2` [Example 219, (S)-1′-(6-((2-amino-3-chloropyridin-4-yl)thio)pyrido[2,3-b]pyrazin-2-yl)-6-methoxy-1,3-dihydrospiro[indene-2,4′-piperidin]-1-amine], the IC50 came out at 4.19 µM.

For the molecule `Nc1nccc(Sc2ccc3nc(N4C[C@H]5C[C@@H](C4)[C@H]5N)cnc3n2)c1Cl` [Example 137], the IC50 (full-length SHP2 with 1 μM activating peptide, 50 μM DiFMUP, single assay or mean of multiple assays, read-out: Biological Example 1 IC50) is 0.064 µM. In turn, `CC1(CN)CCN(c2cnc3nc(-c4cccc(Cl)c4Cl)ccc3n2)CC1` [Example 27, (1-(6-(2,3-dichlorophenyl)pyrido[2,3-b]pyrazin-2-yl)-4-methylpiperidin-4-yl)methanamine] gave an IC50 of 0.5 µM. Turning to `Nc1ncc(Sc2ccc3nc(N4CCC5(CC4)Cc4ccccc4[C@H]5N)cnc3n2)c(Cl)c1Cl` [Example 119, (S)-1′-(6-((6-amino-4,5-dichloropyridin-3-yl)thio)pyrido[2,3-b]pyrazin-2-yl)-1,3-dihydrospiro[indene-2,4′-piperidin]-1-amine], half-maximal inhibition (IC50) required 0.039 µM. `Cc1nccc(Sc2ccc3nc(N4CCC5(CC4)CO[C@@H](C)[C@H]5N)cnc3n2)c1C` [Example 174, (3S,4S)-8-(6-((2,3-dimethylpyridin-4-yl)thio)pyrido[2,3-b]pyrazin-2-yl)-3-methyl-2-oxa-8-azaspiro[4.5]decan-4-amine] yielded an IC50 of 0.335 µM. `C[C@@H]1OCC2(CCN(c3cnc4nc(Sc5ccnc6c5ccn6C)ccc4n3)CC2)[C@@H]1N` [Example 191, (3S,4S)-3-methyl-8-(6-((1-methyl-1H-pyrrolo[2,3-b]pyridin-4-yl)thio)pyrido[2,3-b]pyrazin-2-yl)-2-oxa-8-azaspiro[4.5]decan-4-amine]: the IC50 worked out at 0.134 µM. In the case of `CC(C)(N)C1CCN(c2cnc3nc(Sc4ccnc(N)c4Cl)ccc3n2)CC1` [Example 60, 4-((2-(4-(2-aminopropan-2-yl)piperidin-1-yl)pyrido[2,3-b]pyrazin-6-yl)thio)-3-chloropyridin-2-amine], the IC50 was 0.245 µM.

`CC1(N)CCN(c2cnc3nc(Sc4ccnc(N5CCCC5)c4Cl)ccc3n2)CC1` [Example 49, 1-(6-((3-chloro-2-(pyrrolidin-1-yl)pyridin-4-yl)thio)pyrido[2,3-b]pyrazin-2-yl)-4-methylpiperidin-4-amine] displayed an IC50 of 0.063 µM. The molecule `C[C@@H]1OCC2(CCN(c3cnc4nc(-c5cccc(Cl)c5Cl)ccc4n3)CC2)[C@@H]1N` [Example 39, (3S,4S)-8-(6-(2,3-dichlorophenyl)pyrido[2,3-b]pyrazin-2-yl)-3-methyl-2-oxa-8-azaspiro[4.5]decan-4-amine] had an IC50 of 0.32 µM. On to `Cc1nccc(Sc2ccc3nc(N4CCC[C@@](C)(N)CC4)cnc3n2)c1Cl` (single isomer, unassigned) [Example 150], for which the IC50 stood at 0.05 µM. `Nc1nccc(Sc2ccc3nc(N4CCC(N)CC4)cnc3n2)c1Cl` [Example 81, 4-((2-(4-aminopiperidin-1-yl)pyrido[2,3-b]pyrazin-6-yl)thio)-3-chloropyridin-2-amine] yielded an IC50 of 0.072 µM. On to `Nc1nccc(Sc2ccc3nc(N4CC5CCC(N)C5C4)cnc3n2)c1Cl` (stereo not drawn) [Example 100, 2-(6-((2-amino-3-chloropyridin-4-yl)thio)pyrido[2,3-b]pyrazin-2-yl)octahydrocyclopenta[c]pyrrol-4-amine], for which the midpoint of inhibition, the IC50, lay at 0.121 µM.

In the case of `CN(C)C1C[C@@H]2CC[C@@H](C1)N2c1cnc2nc(Sc3ccnc(N)c3Cl)ccc2n1` (stereo partly drawn) [Example 92, (1R,3s,5S)-8-(6-((2-amino-3-chloropyridin-4-yl)thio)pyrido[2,3-b]pyrazin-2-yl)-N,N-dimethyl-8-azabicyclo[3.2.1]octan-3-amine], the IC50 came to 0.066 µM.

In turn, `C[C@@H]1OCC2(CCN(c3cnc4nc(Sc5c(Cl)cnc6[nH]ccc56)ccc4n3)CC2)[C@@H]1N` [Example 192, (3S,4S)-8-(6-((5-chloro-1H-pyrrolo[2,3-b]pyridin-4-yl)thio)pyrido[2,3-b]pyrazin-2-yl)-3-methyl-2-oxa-8-azaspiro[4.5]decan-4-amine] yielded an IC50 of 0.045 µM. Same read-out and setting: in the case of `CC(C)(N)C1CCN(c2cnc3nc(Sc4cccc(Cl)c4Cl)ccc3n2)CC1` [Example 61, 2-(1-(6-((2,3-dichlorophenyl)thio)pyrido[2,3-b]pyrazin-2-yl)piperidin-4-yl)propan-2-amine] it was 1.57 µM; in that of `NCC1CN(c2cnc3nc(Sc4ccnc(N)c4Cl)ccc3n2)CCO1` (stereo not drawn) [Example 62, 4-((2-(2-(aminomethyl)morpholino)pyrido[2,3-b]pyrazin-6-yl)thio)-3-chloropyridin-2-amine], 0.165 µM. With `Nc1nccc(Sc2ccc3nc(N4CCC(N)(C(F)(F)F)CC4)cnc3n2)c1Cl` [Example 104, 4-((2-(4-amino-4-(trifluoromethyl)piperidin-1-yl)pyrido[2,3-b]pyrazin-6-yl)thio)-3-chloropyridin-2-amine], the midpoint of inhibition, the IC50, lay at 3.35 µM. In the case of `C[C@@H]1OCC2(CCN(c3cnc4nc(Sc5ccnc(N6CC[C@@H](O)C6)c5Cl)ccc4n3)CC2)[C@@H]1N` [Example 107, (R)-1-(4-((2-((3S,4S)-4-amino-3-methyl-2-oxa-8-azaspiro[4.5]decan-8-yl)pyrido[2,3-b]pyrazin-6-yl)thio)-3-chloropyridin-2-yl)pyrrolidin-3-ol], the IC50 was found to be 0.12 µM.

Turning to `Nc1nccc(Sc2ccc3nc(N4CC5COCC(C4)N5)cnc3n2)c1Cl` [Example 207, 4-((2-(3-oxa-7,9-diazabicyclo[3.3.1]nonan-7-yl)pyrido[2,3-b]pyrazin-6-yl)thio)-3-chloropyridin-2-amine], inhibition was half-maximal at 0.73 µM (IC50). Molecule `COc1cccc2c1CC1(CCN(c3cnc4nc(Sc5ccnc(N)c5Cl)ccc4n3)CC1)[C@@H]2N` [Example 155] came in with an IC50 of 0.045 µM.
